Bridge positions count the residues as written; N and C are the ends. Square brackets hold non-standard residues; d marks the D form. Peptide text beside a SMILES is read from it. * marks the point of attachment. Octanoyl(6-Me) = CCC(C)CCCCC(=O)*; Dab = NCC[C@H](N)C(=O)O
How the values were obtained:
[1] = Acute toxicity in iv dosed Swiss mouse assessed as maximum tolerated dose measured after 24 hrs; type: organism-based; details: in vivo
Acinetobacter baumannii = experiment: Antibacterial activity against carbapenem-resistant Acinetobacter baumannii NCTC13304 infected in ICR mouse model administered intravenously with compound at 1 and 6 hrs post-infection and measured after 7 days; type: functional; details: NCTC13304, 168 h, route iv, time 7 day
Escherichia coli = experiment: Antibacterial activity against Escherichia coli ATCC BAA-2523 infected in ICR mouse model administered intravenously with compound at 1 and 6 hrs post-infection and measured after 7 days; type: functional; details: ATCC BAA-2523, 168 h, route iv, time 7 day
Klebsiella pneumoniae = experiment: Antibacterial activity against carbapenem-resistant Klebsiella pneumoniae ATCC BAA-1705 infected in ICR mouse model administered intravenously with compound at 1 and 6 hrs post-infection and measured after 7 days; type: functional; details: ATCC BAA-1705, 168 h, route iv, time 7 day
Pseudomonas aeruginosa [2] = experiment: Antibacterial activity against Pseudomonas aeruginosa ATCC 27853 infected in ICR mouse model administered intravenously with compound at 1 and 6 hrs post-infection and measured after 7 days; type: functional; details: ATCC 27853, 168 h, route iv, time 7 day
Pseudomonas aeruginosa [3] = experiment: Antibacterial activity against Pseudomonas aeruginosa ATCC 27853 infected in ICR mouse model infected in ICR mouse model assessed as survival rate at 20 mg/kg, iv administered at 1 and 6 hrs post-infection and measured after 7 days relative to control; type: functional; details: ATCC 27853, 168 h, time 7 day

CCC(C)CCCCC(=O)N[C@@H](CCN)C(=O)N[C@H](C(=O)N[C@@H](CCN)C(=O)N[C@H]1CCNC(=O)[C@H]([C@@H](C)O)NC(=O)[C@H](CCN)NC(=O)[C@H](CCN)NC(=O)[C@H](CC(C)C)NC(=O)[C@@H](CC(C)C)NC(=O)[C@H](CCN)NC1=O)[C@@H](C)O (stereo partly drawn) ({Octanoyl(6-Me)}-[Dab]T[Dab][Dab][Dab][dL]L[Dab][Dab]T; lactam 4-C) [listing 1 of 2 here]
MTD at 24 h [1]: 5.3 mg/kg

CCC(C)CCCCC(=O)N[C@@H](CCN)C(=O)N[C@H](C(=O)N[C@@H](CCN)C(=O)N[C@H]1CCNC(=O)[C@H]([C@@H](C)O)NC(=O)[C@H](CCN)NC(=O)[C@H](CCN)NC(=O)[C@H](CC(C)C)NC(=O)[C@@H](CC(C)C)NC(=O)[C@H](CCN)NC1=O)[C@@H](C)O (stereo partly drawn) ({Octanoyl(6-Me)}-[Dab]T[Dab][Dab][Dab][dL]L[Dab][Dab]T; lactam 4-C) [listing 2 of 2 here]
ED50 (Acinetobacter baumannii): 0.98 mg/kg
ED50 (Escherichia coli): 0.47 mg/kg
ED50 (Klebsiella pneumoniae): 0.39 mg/kg

C[C@@H](O)[C@H]1C(=O)N2C(C(=O)O)=C(S[C@@H]3CN[C@H](C(=O)N(C)C)C3)[C@H](C)[C@H]12 [MEROPENEM]
ED50 (Pseudomonas aeruginosa [2]): 7.07 mg/kg
survival at 20 mg/kg (Pseudomonas aeruginosa [3]): 100%
